Experimental data as given in patent publication US8822174B1, “Sterilization indicator for oxidative sterilants” (priority 2013, dated 2014).
Where “and” joins values, the source holds several entries; their conditions need not be identical. Equal values may be shown once.

Tested on: Geobacillus stearothermophilus spores
Format: cell-based
Description: Geobacillus stearothermophilus spores are resuspended in potassium ferricyanide concentrations ranging from 0.5 μg/ml to 200 mg/ml in samples having a spore concentration of 1E8 per ml (1×10^8 spores per milliliter). SCBI vials are inoculated with 20 μl (≈2 million spores) of each of the sample suspensions and air dried at least overnight. The SCBIs are then capped and run in a VHP BIER vessel for the times shown in Table 1 below using a 0.8 g injection of 59% hydrogen peroxide.
Geobacillus stearothermophilus spores are resuspended in Prussian blue concentrations ranging from 0.5 μg/ml to 123 mg/ml at a spore concentration of 1E8 per ml. SCBI vials are inoculated with 20 μl (≈2 million spores) of the appropriate suspension and air dried at least overnight. The SCBIs are then capped and run in a VHF) BIER vessel for the times listed below using a 0.8 g injection of 59% hydrogen peroxide.

## [C-]#N.[C-]#N.[C-]#N.[C-]#N.[C-]#N.[C-]#N.[C-]#N.[C-]#N.[C-]#N.[C-]#N.[C-]#N.[C-]#N.[C-]#N.[C-]#N.[C-]#N.[C-]#N.[C-]#N.[C-]#N.[Fe+2].[Fe+2].[Fe+2].[Fe+3].[Fe+3].[Fe+3].[Fe+3] [Prussian Blue, Prussian blue]
  Killed/Total Samples: 0/10 and 8/10 and 3/10 and 7/10* and 1/10* and 6/10* and 2/10* and 10/10
  grow out results compared with potassium ferricyanide (Table 1): comparable results
